From patent US20170112897A1, “METHODS FOR TREATING BRAIN INSULIN RESISTANCE” (priority 2015, published 2017)

Test system: SOCS3 associated with the insulin receptor (SOCS3/IRβ)
Assay: Ex vivo Western blotting of SOCS3 to IR beta chain ratio in hippocampal formation
Type: cell-based, human
Conditions: MCI cases
Excerpt: The data shown are ratios of SOCS3 to IR beta chain (IRβ) in ex vivo Western blotting tests on the hippocampal formation of age- and sex-matched normal (N), non-amnestic mild cognitive impairment (naMCI), amnestic mild cognitive impairment (aMCI), and AD dementia (ADd) cases (n=10 in each group). The basal SOCS3/IRβ levels were highly elevated in naMCI, aMCI, and ADd cases compared to the normal cases. […] Asterisks indicate statistical significance levels for differences within diagnostic groups (*=p<0.05 and *** p=<0.0001).

D-Ala^2 GIP
basal SOCS3/IRβ ratio: highly effective in reducing this ratio
